From patent US20230139506A1, “HETEROCLITIC CANCER VACCINES” (MEMORIAL SLOAN KETTERING CANCER CENTER, priority 2020, published 2023) come the findings set out here.

For one assay, the system named is CD8+ T cells. As to the kind of experiment: CALR9p2(T5F)-tetramer staining and flow cytometry of CD8+ T cells from immunized mice. It counts as in vivo, mouse.
Another assay concerns the target T1, H-2Kb (Mus musculus, UniProt P01901).
T1 construct: its ability to stabilize MHC-I in the H-2Kb-expressing TAP-deficient RMA/S cell line; endogenous in cells; host or cells: RMA/S cells (murine, TAP-deficient)
T1 sequence (P01901 22-369): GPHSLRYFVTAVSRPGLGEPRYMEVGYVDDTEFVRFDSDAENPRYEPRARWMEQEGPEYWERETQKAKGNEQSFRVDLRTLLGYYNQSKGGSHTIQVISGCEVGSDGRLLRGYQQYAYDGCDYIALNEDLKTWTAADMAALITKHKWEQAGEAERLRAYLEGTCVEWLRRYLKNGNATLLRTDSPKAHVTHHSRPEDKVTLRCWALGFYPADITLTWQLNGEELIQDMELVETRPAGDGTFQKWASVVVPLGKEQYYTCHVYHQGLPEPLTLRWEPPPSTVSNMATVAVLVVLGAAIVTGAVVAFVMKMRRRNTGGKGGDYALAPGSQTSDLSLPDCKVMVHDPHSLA
T1 sequence (P01887 21-119 partner): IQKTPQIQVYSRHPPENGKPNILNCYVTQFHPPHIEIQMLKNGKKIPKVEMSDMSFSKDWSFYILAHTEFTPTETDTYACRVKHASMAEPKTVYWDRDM
As to the kind of experiment: MHC-I stabilization assay using TAP-deficient RMA/S cells. It counts as cell-based, murine. The method, then: (§1) To test peptide binding to murine H-2Kb or human HLA-A*02:01, TAP-deficient RMA/S and T2 cells were used, respectively, as previously reported (59, 60). […] T2 cells (62) were serum-starved in serum-free RPMI media overnight and […] at indicated final concentrations for 16 hours before measuring HLA-A*02:01 levels by flow cytometry (BD; Clone BB7.2). The […] (SEQ ID NO. 287) peptide was acquired as a custom order from Genscript.

Another assay deals with C57BL/6J mice. The assay is described as follows: Peptide immunization (Titermax adjuvant) and IFNγ ELISpot of CD8+ T cells from draining lymph nodes. It counts as in vivo, mouse. Conditions: for CALR9p2-specific CD8+ T cell response: peptide emulsified in Titermax adjuvant, secondary restimulation with CALR9p2. As for the experimental part:
(§2) All peptides were purchased as custom peptide synthesis orders from GenScript at a purity of >98% and resuspend at 10 mg/mL in DMSO (Sigma). For peptide vaccines, peptides were diluted in PBS and emulsified with Titermax® (Titermax USA, Inc) at a 1:1 ratio immediately prior to immunization, such that each dose was composed of 10 μg peptide in a total volume of 25 uL. In control (DMSO) immunization, an equivalent volume of DMSO is substituted for the diluted peptide in the TiterMax® emulsion. For subsequent in vitro assays, draining inguinal and popliteal lymph nodes were collected at indicated time points and CD8+ T cells were isolated using positive magnetic sorting using mouse CD8a (Ly-2) MicroBeads (Miltenyi Biotec). DNA vaccines were performed using a gene gun as previously described (27, 63) according to indicated time points. Briefly, mice received four injections (400 lbs/inch2) of DNA-coated gold particles into the abdominal region of the skin for a total 4 μg of DNA per dose. DNA plasmids encoding the wildtype or 52 base-pair deletion CALRMUT sequences fused with the flag sequence are as previously described (64). For pING-OVA, the full-length chicken ovalbumin sequence was cloned into the pING plasmid (65). CD8+ T cells were collected as before, but only from draining inguinal lymph nodes. To test for antigen-specificity, the mouse IFNγ ELISpot set (BD) was used according to the manufacturer's instructions. Briefly, CD8+ T cells were frozen immediately after purification in FBS containing 10% DMSO, thawed one day prior to restimulation and allowed to recover overnight in 20 U/mL IL-2 (Peprotech) RPMI-1640 medium containing 10% fetal bovine serum (FBS), Na-Pyruvate, L-glutamine and Penicillin/Streptomycin. As a source of antigen-presenting cells (APCs), splenocytes from naïve mice were depleted of T cells using magnetic microbeads for CD8a (Ly2) and CD4 (L3T4) (Miltenyi Biotec), pulsed for one hour with 100 μg/mL peptide at 37° C. followed by a wash. For each well, 105 CD8+ T cells were co-culture with 1×105-3×105 peptide-pulsed APCs and incubated for approximately 18 hours. Spots were counted using the ImmunoSpot analyzer (Cellular Technology Limited).

A further assay has as its system RMA/SpER-CALR9p2 tumors. As to the kind of experiment: Tumor growth experiments with RMA/SpER-CALR9p2 tumors. It counts as in vivo, mouse. The method, then: as §2
RMA/S cells were maintained in RPMI 1640 medium supplemented with 7.5% inactivated FBS, 1×non-essential amino acids and 2 mM L-glutamine. The DNA sequence encoding the CALR9p2 peptide (bold) was cloned into the PresentER-IRES-GFP (38) construct using the following oligo:
following SfiI digestion and T4 ligation (New England Biolabs). The resulting construct was used to generate retrovirus by co-transfection with pCL-Ampho into ecotropic Pheonix cells (ATCC). Viral supernatants were collected at 48 and 72 hours, pooled and Retro-X Concentrator (Takara Bio USA)-concentrated retrovirus was used to transduce RMA/S cells by spinoculation using polybrene (Sigma). GFP-positive cells were FACS sorted (BD FACSAria III) and cultured in 4 μg/mL puromycin (Gibco) media. A total of 5×10^6 cells were injected subcutaneously in the flank of mice. For anti-PD1 treatment, 250 μg of RMP1-14 was injected intra-peritoneally in PBS at indicated time points.

In another assay the test system is peptide-pulsed B16 cells. The assay is described as follows: Killing assay of peptide-pulsed B16 cells by CD8+ T cells isolated from peptide-immunized mice. It counts as cell-based, mouse. Particulars: CD8+ T cells from mice immunized with a single dose.
The target in another assay is T2, HLA-A*02:01 (Homo sapiens, UniProt P04439, D140Y/D185E/D98H/E176V/E277Q/G131W/G231S/I119V/I121R/I166T/I218V/L300P/L318F/N151K/N90K/P208A/P217A/Q86G/Q94H/R138H/R169H/T345S).
T2 construct: endogenous in cells; host or cells: T2 cells (human, TAP-deficient)
The assay is described as follows: MHC-I stabilization assay using human TAP-deficient T2 cells. It counts as cell-based. Conditions: flow cytometry. As for the experimental part:
as §1

Assay [1] concerns PBMCs from healthy HLA-A*02:01 individuals. The assay is described as follows: Human PBMC in vitro restimulation, IFNγ+ CD8+ T cells by intracellular staining. It counts as cell-based. Particulars: six healthy donors; significant (P<0.05) or trending (P<0.30). The method, then:
Freshly isolated or thawed cryopreserved healthy donor PBMCs were restimulated with cytokines and peptides as previously described (14). Briefly, on day 0, PBMCs were resuspended in X-VIVO15 media (Lonza) and seeded at 105 per well of a 96 U-bottom plate with 1000 IU/mL GM-CSF (Sanofi), 500 IU/mL IL-4 (R&D Systems) and 50 ng/mL Flt3L (R&D Systems). On day 1, media was refreshed with 0.1 μg/mL LPS (Invivogen), 10 μM R848 (Invivogen), 5 μg/mL IL-10 (R&D Systems) and 1 μg/mL of indicated peptides, and incubated for 24 hours. The CMV, EBV, Flu, Tetanus (CEFT) and the myelin oligodendrocyte glycoprotein (MOG) peptide pools (JPT Technologies) were used as positive and negative controls, respectively. On days 2 and 5, half the media was refreshed with RPMI (Gibco) containing 10% human serum (Gemini Bio-Products), 10 ug/ml gentamycin (Gibco), HEPES (Gibco), GlutaMAX (Gibco) and hIL-2 and hIL-7 to a final concentration of 10 IU/mL and 10 ng/mL, respectively (R&D Systems). On day 8, the media was refreshed without cytokines. On day 10, PBMCs were restimulated with corresponding peptides in the presence of 1 μg/mL of anti-hCD28 and anti-hCD49d (BD Biosciences). As controls, some cells were stimulated with PMA (Sigma-Aldrich, 50 ng/mL) and ionomycin (Sigma-Aldrich, 1 μg/mL). […] Data was acquired using the BD Fortessa and the data was analyzed on FlowJo V10 (TreeStar). […]

The target of assay [2] is T3, murine H-2Kb on TAP-deficient RMA/S cells (murine, UniProt P01887 21-119; P01901 22-305).
T3 construct: whole, on cells;extracellular; MHC class I molecule; surface level read with antibody clone AF6-88.5 by flow cytometry
T3 sequence (MHC heavy, looked up): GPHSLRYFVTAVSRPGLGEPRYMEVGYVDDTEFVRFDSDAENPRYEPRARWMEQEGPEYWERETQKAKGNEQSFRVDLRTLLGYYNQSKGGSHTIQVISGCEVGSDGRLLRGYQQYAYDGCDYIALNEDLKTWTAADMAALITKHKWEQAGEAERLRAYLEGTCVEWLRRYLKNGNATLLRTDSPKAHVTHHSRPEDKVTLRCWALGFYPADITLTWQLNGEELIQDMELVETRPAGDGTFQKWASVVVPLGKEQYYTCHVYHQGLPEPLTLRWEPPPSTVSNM
T3 sequence (b2m, looked up): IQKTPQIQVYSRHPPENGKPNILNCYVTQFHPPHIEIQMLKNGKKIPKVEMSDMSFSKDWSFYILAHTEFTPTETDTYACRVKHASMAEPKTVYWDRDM
As to the kind of experiment: H-2Kb stabilization assay on RMA/S cells in absence of serum, flow cytometry. An excerpt:
To test peptide binding to murine H-2Kb or human HLA-A*02:01, TAP-deficient RMA/S and T2 cells were used, respectively, as previously reported (59, 60).

Assay [3] has as its target T3, murine H-2Kb on TAP-deficient RMA/S …. As to the kind of experiment: H-2Kb stabilization assay on RMA/S cells, flow cytometry.
The mark [4] stands for this setting: initial CALR9p2(T5F) followed by two CALR9p2 boosts.
[5] abbreviates: two doses of CALR9p2(T5F) and a final CALR9p2 boost.
[6] abbreviates: prophylactic: three doses prior to tumor implantation, vs adjuvant alone.
[7] abbreviates: therapeutic: multiple doses after tumors allowed to grow, vs adjuvant alone.

Turning to RMMRFKMRM [CALR9p2(T5F)], the “IFNγ restimulation by CALR9p2 of CALR9p2(T5F)-tetramer-specific CD8+ T cells” value in the assay with CD8+ T cells (CD8+ T cells from CALR9p2(T5F)-immunized mice) is recorded as “The only CALR9p2-potentiated CD8+ T cells were those also staining for the CALR9p2(T5F)-tetramer”. For the same molecule, in the assay with CD8+ T cells (after restimulation), the “Tim3 and Pd1 levels of CALR9p2-specific vs CALR9p2(T5F)-specific CD8+ T cells” value was “equal levels of Tim3 and Pd1”. The “fold H-2Kb stabilization compared to CALR9p2” value with H-2Kb (absence of serum) is reported as “tenfold”. Besides, the figures for the “CD8+ T cell response to CALR9p2(T5F)” value with C57BL/6J mice (setting [4]) and with C57BL/6J mice (setting [5]) were “very small response to the CALR9p2(T5F) peptide” and “intermediate response to CALR9p2(T5F)”, respectively. Also, the “cross-reactive CD8+ T cell response to CALR9p2” value was “no detectable cross-reactive CD8+ T cell responses to CALR9p2 in vitro” with C57BL/6J mice (setting [4]) and “no detectable cross-reactive CD8+ T cells” in the assay on C57BL/6J mice (setting [5]). The “CALR9p2-specific CD8+ T cell response” value in the assay with C57BL/6J mice was “elicited a CD8+ T cell capable of cross-reacting with CALR9p2 in vitro”. The survival result in the assay on RMA/SpER-CALR9p2 tumors (prophylactic: three doses prior to tumor implantation) was “differences in survival were not significant”; in the assay with RMA/SpER-CALR9p2 tumors (setting [7]), “improved survival”. Moreover, the results for the tumor growth entry with RMA/SpER-CALR9p2 tumors (setting [6]) and in the assay with RMA/SpER-CALR9p2 tumors (setting [7]) were “grew significantly slower” and “tumors grew significantly slower”, respectively. Also, in the assay on RMA/SpER-CALR9p2 tumors (therapeutic, administered with immune checkpoint blockade using a PD-1 antibody), the “effect of the vaccine” value was “even more prominent”. Besides, the “killing of tumor cells pulsed with the CALR9p2 peptide” value in the assay with peptide-pulsed B16 cells was “killing tumor cells pulsed with the CALR9p2 peptide”.

For “SIINFEKL [chicken ovalbumin (OVA)-derived peptide, positive control]”, the H-2Kb stabilization result in the assay with H-2Kb (in the presence of serum) is given as “strong binding”.

Take “RMMRTKMRM [CALR9p2, 9mer CALRMUT peptide starting at position 2, parental native peptide]”: the H-2Kb stabilization result with H-2Kb (in the presence of serum) was “did not elicit detectable H-2Kb stabilization”; with H-2Kb (serum omitted), “poor but still detectable binding”. Besides, the “peptide concentration at which H-2Kb was stabilized” value in the assay with H-2Kb (serum omitted, only the highest concentration) is 100 µg/mL. In the assay with C57BL/6J mice, the “CALR9p2-specific CD8+ T cell response” value is recorded as “did not elicit any CALR9p2-specific CD8+ T cell response”. The “binding to HLA-A*02:01 (stabilization)” value with HLA-A*02:01 is on record as “weak binding signal compared to DMSO control”. The tumor growth result in the assay with RMA/SpER-CALR9p2 tumors (setting [6]) is “grew at the same rate”. Moreover, in [1], the “CD8+ T cell responses (IFNγ) to CALR9p2 alone” value is on record as “three of the six healthy donors”.

For RMMRFKMRM (Custom synthetic peptide) [CALR9p2(T5F) heteroclitic peptide (RMMRFKMRM)], the “fold H-2Kb stabilization compared to CALR9p2” value in assay [2] is around 10 fold.

As to SIINFEKL (Custom order from Genscript) [chicken ovalbumin (OVA)-derived peptide SIINFEKL], in assay [3], the binding result is given as “binds”.
